Experimental data taken from the supplement of paper PMC10307832.

Key:
Assay in all cases: relative viability (nuclei count vs DMSO), 5 days (fraction); higher = more cells survive
Bosutinib + Trametinib = compound: COc1cc(Nc2c(C#N)cnc3cc(OCCCN4CCN(C)CC4)c(OC)cc23)c(Cl)cc1Cl [Bosutinib] + CC(=O)Nc1cccc(-n2c(=O)n(C3CC3)c(=O)c3c(Nc4ccc(I)cc4F)n(C)c(=O)c(C)c32)c1 [Trametinib] (partner 0.02 µM)
Method in brief: (§1)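 Lung cancer cell lines were seeded in 1536-well plates and dosed by pin tool the next day, with either a single drug or a fixed anchor-drug dose combined with five library-drug doses (not always all listed) spaced in √10 steps. Five days later, one step fixed the cells and stained their nuclei (final 0.05% Triton X-100, 1% formaldehyde, 1 ug/ml Hoechst), and nuclei were counted on 4× images. Relative viability is the nuclei count in treated wells divided by the count in vehicle wells, and each value is the median of duplicate plates.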

Bosutinib + Crizotinib = compound: COc1cc(Nc2c(C#N)cnc3cc(OCCCN4CCN(C)CC4)c(OC)cc23)c(Cl)cc1Cl [Bosutinib] + C[C@@H](Oc1cc(-c2cnn(C3CCNCC3)c2)cnc1N)c1c(Cl)ccc(F)c1Cl [Crizotinib] (partner 1 µM)
Method in brief: as §1

Bosutinib + Linsitinib = compound: COc1cc(Nc2c(C#N)cnc3cc(OCCCN4CCN(C)CC4)c(OC)cc23)c(Cl)cc1Cl [Bosutinib] + C[C@]1(O)C[C@@H](c2nc(-c3ccc4ccc(-c5ccccc5)nc4c3)c3c(N)nccn32)C1 [Linsitinib] (partner 1 µM)
Method in brief: as §1

Bosutinib + Pemetrexed = compound: COc1cc(Nc2c(C#N)cnc3cc(OCCCN4CCN(C)CC4)c(OC)cc23)c(Cl)cc1Cl [Bosutinib] + Nc1nc2[nH]cc(CCc3ccc(C(=O)N[C@@H](CCC(=O)O)C(=O)O)cc3)c2c(=O)[nH]1 [Pemetrexed] (partner 0.2 µM)
Method in brief: as §1

Bosutinib + Olaparib = compound: COc1cc(Nc2c(C#N)cnc3cc(OCCCN4CCN(C)CC4)c(OC)cc23)c(Cl)cc1Cl [Bosutinib] + O=C(c1cc(Cc2n[nH]c(=O)c3ccccc23)ccc1F)N1CCN(C(=O)C2CC2)CC1 [Olaparib] (partner 8 µM)
Method in brief: as §1

Row | Cell Line | relative viability (Bosutinib + Trametinib; first compound 0.01 µM) | relative viability (Bosutinib + Trametinib; first compound 0.03162 µM) | relative viability (Bosutinib + Trametinib; first compound 0.1 µM) | relative viability (Bosutinib + Trametinib; first compound 1 µM) | relative viability (Bosutinib + Crizotinib; first compound 0.01 µM) | relative viability (Bosutinib + Crizotinib; first compound 0.03162 µM) | relative viability (Bosutinib + Crizotinib; first compound 0.1 µM) | relative viability (Bosutinib + Crizotinib; first compound 1 µM) | relative viability (Bosutinib + Linsitinib; first compound 0.01 µM) | relative viability (Bosutinib + Linsitinib; first compound 0.03162 µM) | relative viability (Bosutinib + Linsitinib; first compound 0.1 µM) | relative viability (Bosutinib + Linsitinib; first compound 1 µM) | relative viability (Bosutinib + Pemetrexed; first compound 0.01 µM) | relative viability (Bosutinib + Pemetrexed; first compound 0.03162 µM) | relative viability (Bosutinib + Pemetrexed; first compound 0.1 µM) | relative viability (Bosutinib + Pemetrexed; first compound 1 µM) | relative viability (Bosutinib + Olaparib; first compound 0.01 µM) | relative viability (Bosutinib + Olaparib; first compound 0.03162 µM) | relative viability (Bosutinib + Olaparib; first compound 0.1 µM) | relative viability (Bosutinib + Olaparib; first compound 1 µM)
1 | NCI-H596 | 0.842 | 0.765 | 0.825 | 0.663 | 0.923 | 0.884 | 0.989 | 0.743 | 0.941 | 0.978 | 1.16 | 0.831 | 0.576 | 0.464 | 0.503 | 0.505 | 0.73 | 0.715 | 0.705 | 0.564
2 | NCI-H647 | 0.488 | 0.483 | 0.375 | 0.221 | 1.03 | 1.23 | 1.07 | 0.687 | 0.913 | 1.11 | 1.21 | 0.817 | 0.221 | 0.179 | 0.162 | 0.171 | 0.6 | 0.474 | 0.481 | 0.287
3 | NCI-H650 | 0.907 | 0.918 | 0.961 | 0.975 | 0.791 | 0.644 | 0.73 | 0.808 | 1.17 | 0.846 | 0.985 | 1.21 | 0.893 | 0.846 | 0.972 | 0.953 | 0.407 | 0.357 | 0.424 | 0.424
4 | NCI-H661 | 0.616 | 0.554 | 0.565 | 0.439 | – | 1.06 | 0.989 | 0.633 | 0.678 | 0.571 | 0.57 | 0.323 | 0.919 | 0.908 | 0.952 | 0.741 | 0.696 | 0.736 | 0.743 | 0.649
5 | NCI-H838 | 0.518 | 0.483 | 0.472 | 0.316 | 0.845 | 0.79 | 0.737 | 0.354 | 1.04 | 0.97 | 0.951 | 0.466 | 0.268 | 0.229 | 0.246 | 0.253 | 0.84 | 0.752 | 0.684 | 0.406
6 | NCI-H1355 | 0.474 | 0.425 | 0.45 | 0.419 | 1.07 | 1.04 | 1.12 | 0.905 | 0.824 | 0.792 | 0.872 | 0.687 | 1.05 | 0.975 | 1.06 | 1.05 | 0.715 | 0.733 | 0.784 | 0.633
7 | NCI-H1437 | 0.486 | 0.403 | 0.53 | 0.413 | 0.858 | 0.922 | 0.898 | 0.82 | 1.06 | 1.05 | 0.962 | 0.781 | 0.317 | 0.377 | 0.311 | 0.29 | 0.609 | 0.635 | 0.604 | 0.545
8 | NCI-H1651 | 0.805 | 0.801 | 0.829 | 0.757 | 0.783 | 0.89 | 0.888 | 0.773 | 0.911 | 1.02 | 0.939 | 0.724 | 0.529 | 0.678 | 0.643 | 0.569 | 0.184 | 0.189 | 0.184 | 0.201
